Experimental findings from US10973936B2, “18F-saccharide-folates” (MERCK & CIE, priority 2011, dated 2021) are described below.

For one data set, the target named is T1, folate receptor (Homo sapiens, UniProt P15328).
T1 construct: endogenous in cells; host or cells: KB cells (human cervical carcinoma), whole-cell suspension
The data set is described as follows: In vitro binding affinity assay, displacement of 3H-folic acid on KB cells. As to conditions: 3H-folic acid 0.82 nM, 4° C., 30 min; for IC50: three independent experiments, read-out: mean inhibitory concentration of 50% (IC50 value). How it is done:
Binding affinity assays were performed with KB cells derived from human cervical carcinoma, where the folate receptor is overexpressed. The cells were cultured as monolayers in 75 cm^2 flasks at 37° C. in a humidified atmosphere (7.5% CO2). The cells were kept in a special folate-deficient RPMI 1640 medium (FFRPMI 1640; Cell Culture Technologies) supplemented with heat-inactivated fetal calf serum (10%), L-glutamine, penicillin (100 IU/mL), and streptomycin ([…]). The fetal calf serum was the only source of folate in the medium, which is reported to provide a final folate concentration of about 3 nmol/mL, which is at the low end of the physiologic serum concentration in humans.
A cell suspension in pure FFRPMI 1640 medium (no additives, ice-cold) was added into 1.5 mL vials (7000 cells in 240 μL). […] After incubation, the suspension was centrifuged at 3500 rpm and 4° C. for 5 min and the supernatant was removed. By addition of 0.5 mL of 1 N NaOH, the cell pellets were resuspended and lysed at the same time. The lysed cells were stirred in a vortex mixer and transferred into scintillation tubes containing 4 mL of scintillation cocktail (Ultima Gold; Perkin Elmer). Radioactivity was measured using a β-counter (LS6500; Beckman), and the inhibitory concentrations of 50% were determined from displacement curves using Graph Pad Prism 4.0 software.
A general note: Loss of bound radioactivity is the signal in a displacement assay; it reports binding, not function.

Data set [1] is classed as physicochemical. To be noted: pH 7.4. As to the method:
The distribution coefficient (log D7.4) was determined by the shake flask method. In brief, γ-[^18F]-glucose folate was dissolved in a mixture of phosphate buffer (500 μL, pH 7.4) and n-octanol ([…]) at 20° C. The sample was equilibrated for 15 min in an over-head shaker. The two phases were separated by centrifugation (3 min, 5000 rpm) and 50 μL aliquots were taken from each layer and counted for radioactivity in a γ-counter. The partition coefficient is expressed as the ratio of radioactivity (cpm) in the octanol phase to the one in the PBS phase represents the mean±standard deviation of eight measurements.

The test system of another data set is KB tumor xenografts. The data set is described as follows: PET imaging of KB tumor xenografts. Format: in vivo. As to conditions: for PET images of KB tumor xenografts: 75-105 min p.i.; for specificity of uptake (blocking with folic acid): PET, excess folic acid 10 min prior to radiotracer. As to the method:
PET experiments were performed with Explore VISTA PET/CT tomograph (GE), which provides an ultrahigh resolution of less than 0.9 mm. Animals were lightly restrained and injected with 10-14 MBq of γ-[^18F]-glucose folate (100-150 μL per injection) via a lateral tail vein. […] Animals were anesthetized with isoflurane in an air/oxygen mixture. The PET scans were acquired from 75-105 min post-injection. The fused datasets of PET and CT were analyzed with Amira (Version 4) postprocessing software.

T1 sequence (P15328 25-234): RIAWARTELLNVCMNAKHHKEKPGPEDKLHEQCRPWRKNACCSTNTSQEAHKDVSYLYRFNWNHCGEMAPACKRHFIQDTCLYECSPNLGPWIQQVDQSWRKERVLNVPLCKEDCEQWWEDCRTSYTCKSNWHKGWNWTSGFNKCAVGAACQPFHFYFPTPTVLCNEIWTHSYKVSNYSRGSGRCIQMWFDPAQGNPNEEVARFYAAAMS

For orientation: Ki means the equilibrium dissociation constant of an inhibitor or competing ligand from its target. In the case of `Nc1nc2ncc(CNc3ccc(C(=O)NC(CCC(=O)NC(Cc4cn(C5OC(CO)C(O)C(O)C5F)nn4)C(=O)O)C(=O)O)cc3)nc2c(=O)[nH]1` (stereo not shown) [γ-glucose folate, γ-[^19F]-Glucose Folate], at folate receptor, the Ki is 0.8 ± 0.1 nM and the IC50 stood at 1.6 ± 0.1 nM.
For `Nc1nc2ncc(CNc3ccc(C(=O)NC(CCC(=O)O)C(=O)NC(Cc4cn(C5OC(CO)C(O)C(O)C5F)nn4)C(=O)O)cc3)nc2c(=O)[nH]1` (stereo not drawn) [α-glucose folate, α-[^19F]-Glucose Folate], at folate receptor, affinity was put at a Ki of 0.7 ± 0.2 nM and the IC50 stood at 1.4 ± 0.2 nM.
For `Nc1nc2ncc(CNc3ccc(C(=O)NC(CCC(=O)O)C(=O)NC(Cc4cn(C5OC(CO)C(O)C(O)C5[18F])nn4)C(=O)O)cc3)nc2c(=O)[nH]1` (stereo not drawn) [α-[^18F]-glucose folate], the “log D7.4” value in data set [1] was −4.20±0.06. In the data set with KB tumor xenografts, the “PET images of KB tumor xenografts” value is “excellent images of KB tumor xenografts”; the “specificity of uptake (blocking with folic acid)” value was “highly specific and blocked by natural folic acid”.
For `Nc1nc2ncc(CNc3ccc(C(=O)NC(CCC(=O)NC(Cc4cn(C5OC(CO)C(O)C(O)C5[18F])nn4)C(=O)O)C(=O)O)cc3)nc2c(=O)[nH]1` (stereo not shown) [γ-[^18F]-glucose folate], the “log D7.4” value in data set [1] was −4.21±0.14. Further, in the data set on KB tumor xenografts, the “PET images of KB tumor xenografts” value was “excellent images of KB tumor xenografts”; the “specificity of uptake (blocking with folic acid)” value is “highly specific and blocked by natural folic acid”.
